Assay results from patent US12201690B2, “Formulations/compositions comprising ibrutinib” (Janssen Pharmaceutica NV, priority 2018, dated 2025).

How the values were obtained:
[1] = 1M ASAP (Accelerated Stability Assessment Program) stability study; assay type: physicochemical; settings: samples stored for 1 month at 60° C.
Procedure: The new 25 concepts were screened in a 1M ASAP (Accelerated Stability Assessment Program) stability study (5, 40 and 60° C. storage conditions), in a 6M lab stability study and in PET tests.
The Results of the 6-Month (6M) Lab Stability

[2] = Microscope search for new needle-shaped (co-)crystals in stored/stressed suspensions; assay type: physicochemical; settings: benzyl alcohol as preservative
Excerpt: As consequence of the increased paraben concentration, a crystallization issue has been observed with the suspension Composition 2 after a few months in stability at different storage conditions. […] By IR, Raman and MS analysis, the new needle crystals are characterized as potentially being co-crystals of the API and Parabens.
Between the acceptable concepts 13 to 20, after 6M storage in cyclic conditions, only in the concept containing benzoic acid as an incipient was new crystallization observed. The other samples were stable. • All concepts were physically stressed by rolling.
All suspension concepts were rolled into a glass vial, closed with a child resistant stopper, at room temperature, horizontally, at a speed of 25 rpm, for 1M. […] Between these concepts, only concepts 18, 19 and 20 were stable.
Some concepts were spiked to try to induce a rapid co-crystallization. Concepts containing Methyl and Ethyl paraben, were spiked with few granules of powder of co-crystals of API/Methyl Paraben and API/Et Paraben.

SMILES	reduction in preservative assay [1]	(co-)crystallization [2]
O=C(O)c1ccccc1 [benzoic acid]	about 5%	
C/C=C/C=C/C(=O)O [Sorbic acid]	about 15%	
OCc1ccccc1 [benzyl alcohol]	1%	not observed
